Laboratory results reported in the NIST ThermoML archive (doi:10.1016/j.fluid.2013.01.015).
± gives the expanded uncertainty stated by the source.

Key:
[1] = 298.15 K; 101.33 kPa; Liquid; Vibrating tube method
[2] = refractive index (Na D-line) (dimensionless); conditions: 298.15 K; 101.33 kPa; Liquid; Standard Abbe refractometry

Compound	mass density [1] [kg/m3]	refractive index [2]
Cc1ccc(C)cc1 [1,4-dimethylbenzene]	856.71 ± 0.14	1.4958 ± 0.0007
CCCCCCCC [octane]	698.61 ± 0.17	1.3951 ± 0.0007
Cc1ccccc1C [1,2-dimethylbenzene]	859.54 ± 0.14	1.49466 ± 0.00072
Cc1cccc(C)c1 [1,3-dimethylbenzene]	859.95 ± 0.14	1.49464 ± 0.00072
